Experimental data taken from patent US20220040129A1, “TREATMENT OF HYPERAMMONEMIA IN PATIENTS WITH RENAL INSUFFICIENCY” (RECORDATI S.p.A., priority 2019, published 2022).

Experiments:
human OAT1 = target: T1, human OAT1 (Homo sapiens, UniProt Q4U2R8); test: In vitro transporter inhibition; type: in vitro ADME
T1 sequence (Q4U2R8 1-563): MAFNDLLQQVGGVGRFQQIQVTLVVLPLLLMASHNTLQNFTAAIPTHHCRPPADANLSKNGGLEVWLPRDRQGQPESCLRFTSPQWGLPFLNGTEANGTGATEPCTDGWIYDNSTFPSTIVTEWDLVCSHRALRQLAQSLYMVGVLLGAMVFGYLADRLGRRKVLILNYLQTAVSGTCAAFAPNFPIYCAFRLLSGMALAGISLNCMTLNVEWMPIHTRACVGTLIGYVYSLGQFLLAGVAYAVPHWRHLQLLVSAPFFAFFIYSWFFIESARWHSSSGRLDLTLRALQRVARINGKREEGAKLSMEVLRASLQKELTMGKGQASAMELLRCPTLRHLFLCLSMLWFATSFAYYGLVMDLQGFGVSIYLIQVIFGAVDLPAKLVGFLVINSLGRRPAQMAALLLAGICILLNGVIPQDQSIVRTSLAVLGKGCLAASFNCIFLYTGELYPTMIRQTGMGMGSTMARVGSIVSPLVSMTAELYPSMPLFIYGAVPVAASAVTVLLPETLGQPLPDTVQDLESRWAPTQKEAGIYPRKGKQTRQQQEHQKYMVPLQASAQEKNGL
Protocol: (§1) In vitro drug interaction studies were performed with human transporters. […] Potential interactions with inhibitors of the OAT1 transporter were considered clinically irrelevant.

human MATE1 = target: T2, human MATE1 (Homo sapiens, UniProt Q96FL8); test: In vitro transporter inhibition; type: in vitro ADME
T2 sequence (Q96FL8 1-570): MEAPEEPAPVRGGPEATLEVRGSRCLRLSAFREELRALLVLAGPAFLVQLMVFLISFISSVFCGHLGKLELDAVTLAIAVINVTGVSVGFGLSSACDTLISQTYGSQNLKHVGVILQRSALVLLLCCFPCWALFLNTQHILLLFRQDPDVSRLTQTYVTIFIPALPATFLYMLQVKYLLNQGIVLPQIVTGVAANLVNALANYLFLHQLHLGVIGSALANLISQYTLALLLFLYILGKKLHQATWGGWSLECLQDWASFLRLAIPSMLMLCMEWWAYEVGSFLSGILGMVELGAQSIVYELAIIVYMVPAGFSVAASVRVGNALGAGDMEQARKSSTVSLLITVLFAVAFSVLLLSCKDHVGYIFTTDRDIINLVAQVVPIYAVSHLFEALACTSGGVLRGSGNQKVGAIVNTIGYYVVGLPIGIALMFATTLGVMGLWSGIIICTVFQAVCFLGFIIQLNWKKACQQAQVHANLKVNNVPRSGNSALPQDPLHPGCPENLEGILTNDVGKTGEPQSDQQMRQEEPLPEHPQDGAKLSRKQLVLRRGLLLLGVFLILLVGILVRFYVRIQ
Protocol: as §1

[1] = Exposure previously observed in HVs following oral administration; settings: human, in vivo, read-out: Highest AUC previously observed

## NC(=O)N[C@@H](CCC(=O)O)C(=O)O [carglumic acid, N-carbamoyl-L-glutamic acid]
Human OAT1
  Inhibition of human OAT1 uptake transporter: not an inhibitor
Human MATE1
  Inhibition of human MATE1 uptake transporter: not an inhibitor
[1]
  AUC: 30700 ng·h/mL
